We go through two molecules from US20210196714A1, “COMPOSITIONS AND METHODS FOR TREATING DISORDERS CHARACTERIZED WITH ABERRANT RAS/MAPK SIGNALING” (Duke University, priority 2018, published 2021).

The target in one series is ERK2 (Homo sapiens, UniProt P28482). Particulars: see WO 2002064586; cited from earlier work.
The next series has as its system rap1-CRISPR embryos. The experiment in a line: Jaw defect (MK-CH distance) in rap1-CRISPR embryos. Particulars: rap1 F0 CRISPR mutant, 100 nM, 5 dpf. Format: in vivo, zebrafish. The protocol: FIG. 4: Compound 8 ameliorates the CE and jaw defects caused by loss of rap/and kdm6a. (a) gRNA targeting both zebrafish rap1a and rap1b were injected into embryos at the 1-cell stage with Cas9 protein. Larvae were incubated with compound 8 (100 nM) at the 8-cell stage and scored for micrognathia. 5 dpf larvae were stained with Alcian blue to assess the layout of the jaw cartilage. In comparison to control embryos (top), rap1-CRISPR embryos have smaller jaws. […] (b) Quantitative measurement of the distance between MK and CH cartilages. (c) Larvae were scored for CE (n>30 for each concentration). (d) 5 dpf embryos were stained with Alcian blue to assess the layout of jaw cartilage. […] (e) Quantitative measurement of the distance between MK and CH cartilages. *p<0.05; ***p<0.001. […]
For convergence and extension (CE) phenotyping, embryos were scored as described (see, Leitch, C. C. et al. Nat Genet 40, 443-8 (2008)) at the 8-10 somite stage, and images were captured using an AZ100 microscope and NIS Elements software (Nikon). […] The distance between Meckel's (MK) and ceratohyal (CH) cartilages was measured on ventral bright field images with Image J (NIH). […] Fluorescence signal on embryo heads was imaged with the Nikon AZ100 microscope and DS-Qi1MC digital camera using […] Z-stacks to generate extended depth of focus images. Cell numbers were quantified using the ImageJ ICTN plugin (NIH). […]

Series [1] relates to zebrafish kmt2d morphants. The experiment in a line: Rescue of convergent-extension (CE) phenotype in kmt2d morphants. In kind it is in vivo. Particulars: dose response.
The test system of another series is zebrafish embryos. The experiment in a line: Toxicity test in zebrafish embryos. In kind it is in vivo. The protocol: (§1) FIG. 1: In vivo screen using BRAF/MEK/ERK inhibitors. (a) Flow chart of the experimental design. […] For the primary screen, 24 compounds were assessed for their ability to rescue the convergent-extension (CE) phenotype of zebrafish kmt2d morphants, followed by rescue tests of additional phenotypes (jaw and brain) within the kmt2d morphant, or CE of additional genetic KS models. (b) Toxicity results. Twenty embryos at the 8-cell stage were incubated in egg water containing 100 nM, 1 μM, and 10 μM of the 26 compounds. After 24 hours, larvae were scored for toxicity. Black bar: death; grey bar: abnormal morphology; white bar: nontoxic. (c) Embryos were injected with kmt2d-MO at the 2-4 cell stage and soaked in egg water containing 100 nM of each compound at the 8-cell stage. After 24 hours, larvae were scored for CE. […] The efficacy of each compound was determined by a chi-square test in which Class I and Class II were considered together.
(§2) To guard against possible bias, the tool and negative control compounds were interspersed across the experiment and the zebrafish phenotyping team was blinded to the identity of each compound. Typical of small molecule storage, each of the 29 compounds was dissolved in dimethyl sulfoxide (DMSO). […] Next, each compound was diluted serially with egg water and toxicity tested by assaying the percentage of abnormal or dead embryos across three different concentrations (10 μM, 1 μM, 100 nM; FIG. 1B).

Series [2] in a line: Toxicity test in zebrafish embryos. Particulars: zebrafish, in vivo; read-out: LC50 (lethal concentration required to kill 50% of the population). Format: in vivo. The procedure:
as §1, §2

Entries after “also recorded” stand apart in the source; their conditions may differ.

Sequence of ERK2 (P28482 whole entry, species assumed): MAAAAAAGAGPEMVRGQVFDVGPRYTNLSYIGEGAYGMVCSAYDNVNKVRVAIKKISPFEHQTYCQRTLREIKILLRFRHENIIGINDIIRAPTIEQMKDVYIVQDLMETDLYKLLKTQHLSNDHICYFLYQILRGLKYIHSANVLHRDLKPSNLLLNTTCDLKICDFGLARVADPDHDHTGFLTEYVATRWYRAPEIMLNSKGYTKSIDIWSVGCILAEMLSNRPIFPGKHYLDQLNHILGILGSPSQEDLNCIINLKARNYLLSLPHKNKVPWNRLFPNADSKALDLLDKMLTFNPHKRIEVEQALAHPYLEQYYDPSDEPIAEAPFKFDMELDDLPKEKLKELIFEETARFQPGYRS

As to `CC[C@@H](CO)Nc1ncc(C)c(-c2c[nH]c(C(=O)N[C@H](CO)c3cccc(Cl)c3)c2)n1` [Compound 2, N-((S)-1-(3-chlorophenyl)-2-hydroxyethyl)-4-(2-(((S)-1-hydroxybutan-2-yl)amino)-5-methylpyrimidin-4-yl)-1H-pyrrole-2-carboxamide], the ERK2 inhibitor potency entry on ERK2 was “potent”. Further, in the series with rap1-CRISPR embryos, the “jaw length / MK-CH distance” value is “can be ameliorated; also recorded: restored significantly the jaw length of morphants and mutants to nearly wild type levels”.
`CC(C)c1nc(-c2cccc(NS(=O)(=O)c3c(F)cccc3F)c2F)c(-c2ccnc(N)n2)s1` [Compound 8, desmethyl-Dabrafenib]: the “CE defects at 50 nM and 100 nM doses” value in series [1] (50 and 100 nM) was “Significant rescue”. Also, the “CE rescue at dosages beyond 100 nM” value in series [1] (above 100 nM up to 1 μM) is “higher dosages did not improve efficacy any further”. In the series with zebrafish embryos (100 nM or 500 nM), the “toxicity at the concentrations used for pMEK test” value is listed as “lack of toxicity”. The “toxicity: pathology (abnormal or dead embryos)” value with zebrafish embryos (100 nM, 24 hours) was “safe”. In addition, the “LC50 relative to effective in vivo exposure (greater by)” value with zebrafish embryos (LC50 vs 0.26 nM exposure) was “four”. Moreover, the “overt pathologies in zebrafish embryos” value in the series with zebrafish embryos (zebrafish, in vivo) is on record as “induced no overt pathologies”. Besides, the LC50 at 24 h in series [2] was in the range of 1 to 10 µM. Also, in the series with rap1-CRISPR embryos, the “jaw length / MK-CH distance” value was “can be ameliorated; also recorded: restored significantly the jaw length of morphants and mutants to nearly wild type levels”.
